Laboratory results as given in ChEMBL document CHEMBL1150001, “A rationale for the design and synthesis of m1 selective muscarinic agonists” (Bioorg Med Chem Lett, 1992).
Substitutions are numbered along the chain they refer to. The source made the active and inactive calls. The rule behind the calls is not given here.

Key:
[1] = target: T1, Muscarinic acetylcholine receptor M3 (Homo sapiens, UniProt P20309); test: Evaluated for its MIPA (muscarinic-stimulated inositol phosphate accumulation) activity measured in SK-N-SH neuroblastoma cells expressing human muscarinic m3 receptor, compound run at 100 uM;100 uM of carbachol was used; format: functional, cell-based
Target sequence in this assay (P20309 whole entry, looked up): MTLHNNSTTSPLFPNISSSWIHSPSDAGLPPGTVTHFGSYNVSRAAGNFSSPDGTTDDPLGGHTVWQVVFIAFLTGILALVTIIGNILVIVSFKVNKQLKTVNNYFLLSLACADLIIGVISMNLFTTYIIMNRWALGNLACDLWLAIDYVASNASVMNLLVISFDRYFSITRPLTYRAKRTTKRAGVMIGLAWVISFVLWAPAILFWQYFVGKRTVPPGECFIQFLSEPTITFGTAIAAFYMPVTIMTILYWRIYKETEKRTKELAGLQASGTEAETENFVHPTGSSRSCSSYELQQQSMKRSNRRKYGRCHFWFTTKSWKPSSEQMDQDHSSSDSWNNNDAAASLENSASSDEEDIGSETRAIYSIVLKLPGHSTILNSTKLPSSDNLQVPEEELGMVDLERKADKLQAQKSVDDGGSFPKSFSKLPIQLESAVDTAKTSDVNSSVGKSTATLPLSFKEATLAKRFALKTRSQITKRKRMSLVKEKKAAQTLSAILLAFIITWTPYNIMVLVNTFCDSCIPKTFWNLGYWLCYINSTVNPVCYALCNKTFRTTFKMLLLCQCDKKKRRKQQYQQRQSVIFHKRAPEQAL

[2] = target: T2, Muscarinic acetylcholine receptor M1 (Homo sapiens) (UniProt P11229); conditions: CHO; at 100 µM
T2 sequence (whole entry): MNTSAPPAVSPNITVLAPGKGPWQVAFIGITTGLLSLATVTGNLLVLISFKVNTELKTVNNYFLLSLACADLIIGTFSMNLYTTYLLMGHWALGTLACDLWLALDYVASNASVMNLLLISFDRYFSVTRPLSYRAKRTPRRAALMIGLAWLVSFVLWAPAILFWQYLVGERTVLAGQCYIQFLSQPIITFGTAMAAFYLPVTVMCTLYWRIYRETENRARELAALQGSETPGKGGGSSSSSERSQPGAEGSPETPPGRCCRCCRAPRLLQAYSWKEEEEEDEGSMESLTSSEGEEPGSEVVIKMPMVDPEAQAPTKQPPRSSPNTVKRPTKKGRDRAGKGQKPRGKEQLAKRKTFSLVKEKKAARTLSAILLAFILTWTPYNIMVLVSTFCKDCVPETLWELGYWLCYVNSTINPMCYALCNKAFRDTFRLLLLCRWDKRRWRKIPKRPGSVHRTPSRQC
Description: Evaluated for its HMPA (human muscarinic inositol phosphate accumulation) activity measured in CHO cells expressing Muscarinic acetylcholine receptor M1 compound run at 100 uM

[3] = target: T3, Muscarinic receptor M1 and M2 (Rattus norvegicus, UniProt P08482+P10980); test: Compound was evaluated for its inhibition of [3H]quinuclidinyl benzilate binding to label antagonist site (RQNB) in rat neocortex
T3 sequence (P08482 whole entry): T2 sequence (whole entry) with A5V, T254S, P309S, R320K, A337G, I413V
T3 sequence (P10980 whole entry): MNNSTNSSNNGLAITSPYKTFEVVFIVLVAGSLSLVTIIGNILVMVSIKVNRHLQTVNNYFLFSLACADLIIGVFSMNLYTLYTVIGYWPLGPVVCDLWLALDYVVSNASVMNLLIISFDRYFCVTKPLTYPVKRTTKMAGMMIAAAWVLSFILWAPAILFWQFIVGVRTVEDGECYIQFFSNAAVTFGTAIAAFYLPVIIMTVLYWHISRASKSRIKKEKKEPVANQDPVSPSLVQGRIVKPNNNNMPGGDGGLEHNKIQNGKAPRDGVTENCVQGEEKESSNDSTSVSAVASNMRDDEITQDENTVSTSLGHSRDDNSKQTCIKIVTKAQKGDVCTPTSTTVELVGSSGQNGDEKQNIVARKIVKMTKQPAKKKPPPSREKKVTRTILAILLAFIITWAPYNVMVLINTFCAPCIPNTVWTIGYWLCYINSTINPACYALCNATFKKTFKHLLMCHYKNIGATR

[4] = target: T4, Muscarinic acetylcholine receptor M1 (Homo sapiens, UniProt P11229); format: functional, cell-based, CHO
T4 sequence (P11229 whole entry): T2 sequence (whole entry)
Description: Effective concentration for HMPA (human muscarinic inositol phosphate accumulation) activity measured in CHO cells expressing Muscarinic acetylcholine receptor M1

[5] = target: T1, Muscarinic acetylcholine receptor M3; format: functional, cell-based, SK-N-SH
Target sequence in this assay (P20309 whole entry): as the sequence (P20309 whole entry, looked up) above
Description: Effective concentration for MIPA (muscarinic-stimulated inositol phosphate accumulation) activity in SK-N-SH neuroblastoma cells expressing human muscarinic M3 receptor

[6] = target: T5, Muscarinic acetylcholine receptor M2 (Homo sapiens, UniProt P08172); test: Inhibitory activity against human Muscarinic acetylcholine receptor M2 using [3H]quinuclidinyl benzilate to label antagonist site (RQNB) in CHO cells; format: cell-based
T5 sequence (P08172 whole entry): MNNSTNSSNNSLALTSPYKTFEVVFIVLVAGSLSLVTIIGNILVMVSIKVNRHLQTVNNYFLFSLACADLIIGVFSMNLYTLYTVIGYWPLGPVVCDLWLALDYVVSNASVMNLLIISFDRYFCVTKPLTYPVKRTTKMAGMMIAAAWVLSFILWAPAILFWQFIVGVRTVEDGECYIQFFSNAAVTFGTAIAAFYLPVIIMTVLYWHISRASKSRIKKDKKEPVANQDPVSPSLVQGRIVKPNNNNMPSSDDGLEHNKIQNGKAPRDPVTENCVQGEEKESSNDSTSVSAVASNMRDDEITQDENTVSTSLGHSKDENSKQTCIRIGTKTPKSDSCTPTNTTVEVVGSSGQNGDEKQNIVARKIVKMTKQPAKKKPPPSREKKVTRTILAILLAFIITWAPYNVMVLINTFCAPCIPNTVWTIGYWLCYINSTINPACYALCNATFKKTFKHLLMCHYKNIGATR

[7] = target: Muscarinic acetylcholine receptor; test: Compound was evaluated for inhibition of [3H]cis-methyldioxolane binding to label agonist sites (RCMD) in rat neocortex
[8] = target: T4, Muscarinic acetylcholine receptor M1; format: functional, cell-based, CHO; remark: listed apart in the source
Description: Inhibitory activity against human Muscarinic acetylcholine receptor M1 using [3H]quinuclidinyl benzilate to label antagonist site (RQNB) in CHO cells

[9] = target: Muscarinic acetylcholine receptors; M1 & M2 (Homo sapiens) (UniProt P11229+P08172); test: Selectivity ratio for m1 over m2 muscarinic receptors was determined; NA=Not active; format: protein assay
[10] = target: T4, Muscarinic acetylcholine receptor M1; test: Compound was evaluated for its inhibitory activity against human Muscarinic acetylcholine receptor M1 using [3H]quinuclidinyl benzilate to label antagonist site (RQNB) in CHO cells; NA=Not active; format: cell-based
[11] = target: T5, Muscarinic acetylcholine receptor M2; test: Compound was evaluated for inhibitory activity against human Muscarinic acetylcholine receptor M2 using [3H]quinuclidinyl benzilate to label antagonist site (RQNB) in CHO cells; NA: Not active; format: cell-based
[12] = target: T1, Muscarinic acetylcholine receptor M3; test: Evaluated for its MIPA (muscarinic-stimulated inositol phosphate accumulation) activity measured in SK-N-SH neuroblastoma cells expressing human m3 receptor, compound run at 100 uM;100 uM of carbachol was used; format: functional, cell-based
Target sequence in this assay (P20309 whole entry, looked up): as the sequence (P20309 whole entry, looked up) above

[13] = target: T5, Muscarinic acetylcholine receptor M2; test: Compound was evaluated for inhibitory activity for Muscarinic acetylcholine receptor M2 using [3H]quinuclidinyl benzilate to label antagonist site (RQNB) in CHO cells; format: cell-based
[14] = target: T4, Muscarinic acetylcholine receptor M1; test: Compound was evaluated for its inhibitory activity against human Muscarinic acetylcholine receptor M1 using [3H]quinuclidinyl benzilate to label antagonist site (RQNB) in CHO cells; Not active; format: cell-based
[15] = target: T5, Muscarinic acetylcholine receptor M2; test: Compound was evaluated for inhibitory activity against human Muscarinic acetylcholine receptor M2 using [3H]quinuclidinyl benzilate to label antagonist site (RQNB) in CHO cells; Not active; format: cell-based

Row | Compound | CCh [1] [%] | CCh [2] [%] | IC50 [3] [µM] | EC50 [4] [µM] | EC50 [5] [µM] | IC50 [6] [µM] | IC50 [7] [µM] | IC50 [8] [µM] | Ratio [9] | IC50 [10] | IC50 [11] | CCh [12] [%] | IC50 [13] [µM] | IC50 [14] | IC50 [15]
1 | Nc1noc(C2CN3CCC2C3)n1 (stereo not drawn) [OXADIAZOLE] | 0.269 | 293 | 0.088 | 100 | 104 | 0.02 | 0.0003 | 0.4 | – | – | – | – | – | – | –
2 | CCO/N=C1\CN2CCC1C2 (stereo not drawn) | 19 | – | 3.112 | – | 8.9 | – | 0.0125 | – | – | – | – | – | – | – | –
3 | CCCCC#CCO/N=C1\CN2CCC1C2 (stereo not drawn) | – | – | 6.045 | – | – | 9.65 | 0.044 | 7.89 | – | – | – | – | – | – | –
4 | C#CCCCO/N=C1\CN2CCC1C2 (stereo not drawn) | – | – | 3.655 | – | – | – | 0.111 | – | inactive | Not Active | Not Active | – | – | – | –
5 | COCC#CCO/N=C1\CN2CCC1C2 (stereo not drawn) | – | – | 35.434 | – | – | 59.3 | 0.055 | 42.4 | – | – | – | – | – | – | –
6 | CCC#CCO/N=C1\CN2CCC1C2 (stereo not drawn) | 56 | 72 | 5.976 | 5.9 | 9.6 | 8.6 | 0.0036 | 4.9 | – | – | – | – | – | – | –
7 | CC#CCO/N=C1\CN2CCC1C2 (stereo not drawn) | – | 63 | 4.214 | 1.9 | 8.8 | 1.7 | 0.004 | 5.81 | – | – | – | 49 | – | – | –
8 | CCCC#CCO/N=C1\CN2CCC1C2 (stereo not drawn) | – | – | 8.689 | – | – | – | 0.048 | 9.64 | – | – | – | – | 20.6 | – | –
9 | C#CC(C)O/N=C1\CN2CCC1C2 (stereo not drawn) | – | – | 3.984 | – | – | 5.28 | 0.035 | 3.69 | – | – | – | – | – | – | –
10 | O/N=C1\CN2CCC1C2 (stereo not drawn) | – | – | > 1 | – | – | – | > 0.1 | – | – | – | – | – | – | Not Active | Not Active
11 | CC#CCC#CCO/N=C1\CN2CCC1C2 (stereo not drawn) | 2 | 81 | 2.914 | 5.05 | – | 5.08 | 0.039 | 5.68 | – | – | – | – | – | – | –
12 | CC(C)O/N=C1\CN2CCC1C2 (stereo not drawn) | – | – | 2.03 | – | – | 3.15 | 0.046 | 2.61 | – | – | – | – | – | – | –
13 | C#C/C=C/CO/N=C1\CN2CCC1C2 (stereo not drawn) | – | – | 13.85 | – | – | 30.2 | – | 12.6 | – | – | – | – | – | – | –
14 | C#CCC#CCC#CCO/N=C1\CN2CCC1C2 (stereo not drawn) | 0 | 50 | 0.958 | 5.1 | – | 2.18 | – | 2.03 | – | – | – | – | – | – | –
15 | CCCO/N=C1\CN2CCC1C2 (stereo not drawn) | 3 | 44 | 0.032 | 27 | – | 3.98 | 0.12 | 3.68 | – | – | – | – | – | – | –
16 | C#CCC#CCO/N=C1\CN2CCC1C2 (stereo not drawn) | 14 | 79 | 8.834 | 4.7 | 16.4 | 2.84 | – | 10 | – | – | – | – | – | – | –
17 | C=CCC#CCO/N=C1\CN2CCC1C2 (stereo not drawn) | – | – | 7.313 | – | – | 15.9 | 0.032 | 9.44 | – | – | – | – | – | – | –
18 | C(#Cc1ccccc1)CO/N=C1\CN2CCC1C2 (stereo not drawn) | 11 | 76 | 5.012 | 3.3 | – | 25.8 | – | 5.42 | – | – | – | – | – | – | –
19 | CO/N=C1\CN2CCC1C2 (stereo not drawn) | 53 | – | 24.558 | – | 14.6 | 7.89 | – | 85 | – | – | – | – | – | – | –
20 | C#CCCO/N=C1\CN2CCC1C2 (stereo not drawn) | – | – | 9.806 | – | – | 15.6 | 0.083 | 14.5 | – | – | – | – | – | – | –
21 | C1CC(O/N=C2\CN3CCC2C3)C1 (stereo not drawn) | – | – | 1.156 | – | – | 1.63 | 0.088 | 1.11 | – | – | – | – | – | – | –
22 | CC(C)(C)O/N=C1\CN2CCC1C2 (stereo not drawn) | – | – | 3.54 | – | – | 4.46 | 0.091 | 3.84 | – | – | – | – | – | – | –
23 | C[N+](C)(C)CC#CCOC(=O)Nc1cccc(Cl)c1.[Cl-] | – | 57 | 5.304 | 3.5 | – | 12.9 | 0.025 | 4 | – | – | – | 3 | – | – | –
24 | C#CCO/N=C1\CN2CCC1C2 (stereo not drawn) | 51 | 104 | 4.359 | 0.89 | 8.4 | 1.04 | – | 9.51 | – | – | – | – | – | – | –
